# Measured values published in PubChem BioAssay AID1845202 (Molecular Pharmacology Branch, DTP, NCI, 2023).
# System: DMS 114 tumor spheroids, viability % test/control
# Assay: Anticancer human tumor DMS 114 cell line growth inhibition;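 further: spheroids exposed to compounds for 7 days before read-out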;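 on viability, T/C: luminescence used as a proxy for viable cells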
# Conditions: spheroids with HUVEC and MSC; for IC50: curve of first compound; for viability, T/C: stronger effect = lower value
# Outline: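 Complex tumor spheroids combined malignant cells with endothelial cells and mesenchymal stem cells. DNA-damaging drugs and DNA repair inhibitors were tested alone and in combination, at half-log dilutions down from clinical Cmax (top 10 microM if Cmax unknown), 0.25% DMSO final.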
# [1] = second compound 1 µM, first compound 0.0316 µM
# [2] = second compound 1 µM, first compound 0.1 µM
# [3] = second compound 1 µM, first compound 0.316 µM
# [4] = second compound 1 µM, first compound 1 µM
# [5] = second compound 1 µM, first compound 3.16 µM
# [6] = second compound 1 µM, first compound 10 µM
# [7] = second compound 3.16 µM, first compound 0.0316 µM
# [8] = second compound 3.16 µM, first compound 0.1 µM
# [9] = second compound 3.16 µM, first compound 0.316 µM
# [10] = second compound 3.16 µM, first compound 1 µM
# [11] = second compound 3.16 µM, first compound 3.16 µM
# [12] = second compound 3.16 µM, first compound 10 µM
# [13] = second compound 10 µM, first compound 0.0316 µM
# [14] = second compound 10 µM, first compound 0.1 µM
# [15] = second compound 10 µM, first compound 0.316 µM
# [16] = second compound 10 µM, first compound 1 µM
# [17] = second compound 10 µM, first compound 3.16 µM
# [18] = second compound 10 µM, first compound 10 µM
# [19] = second compound 31.6 µM, first compound 0.0316 µM
# [20] = second compound 31.6 µM, first compound 0.1 µM
# [21] = second compound 31.6 µM, first compound 0.316 µM
# [22] = second compound 31.6 µM, first compound 1 µM
# [23] = second compound 31.6 µM, first compound 3.16 µM
# [24] = second compound 31.6 µM, first compound 10 µM
# [25] = second compound 100 µM, first compound 0.0316 µM
# [26] = second compound 100 µM, first compound 0.1 µM
# [27] = second compound 100 µM, first compound 0.316 µM
# [28] = second compound 100 µM, first compound 1 µM
# [29] = second compound 100 µM, first compound 3.16 µM
# [30] = second compound 100 µM, first compound 10 µM
Structure (SMILES),IC50 (second compound 1 µM) [µM],IC50 (second compound 3.16 µM) [µM],IC50 (second compound 10 µM) [µM],IC50 (second compound 31.6 µM) [µM],IC50 (second compound 100 µM) [µM],"viability, T/C [1] [%]","viability, T/C [2] [%]","viability, T/C [3] [%]","viability, T/C [4] [%]","viability, T/C [5] [%]","viability, T/C [6] [%]","viability, T/C [7] [%]","viability, T/C [8] [%]","viability, T/C [9] [%]","viability, T/C [10] [%]","viability, T/C [11] [%]","viability, T/C [12] [%]","viability, T/C [13] [%]","viability, T/C [14] [%]","viability, T/C [15] [%]",further results
CC(C)n1c(=O)n(C)c2cnc3cc(F)c(-c4ccc(OCCCN5CCCCC5)nc4)cc3c21 + Cn1nnc2c(C(N)=O)ncn2c1=O,6.43,7.31,6.55,6.08,4.32,95.4,100,101,98.9,75.4,34.2,104,105,104,106,94.8,32.9,103,111,105,"viability, T/C [16]: 93.5%; viability, T/C [17]: 79%; viability, T/C [18]: 33.4%; viability, T/C [19]: 99.6%; viability, T/C [20]: 96%; viability, T/C [21]: 101%; viability, T/C [22]: 95.3%; viability, T/C [23]: 71.2%; viability, T/C [24]: 33.8%; viability, T/C [25]: 85.8%; viability, T/C [26]: 81.6%; viability, T/C [27]: 82.9%; viability, T/C [28]: 84.8%; viability, T/C [29]: 58.8%; viability, T/C [30]: 26.5%"
CC1COCCN1c1cc(-c2ccnn2C)c2ccnc(-c3ccn[nH]3)c2n1 (stereo not given) + Cn1nnc2c(C(N)=O)ncn2c1=O,0.0443,0.0558,0.0339,< 0.0316,< 0.0316,56.6,33.9,22.8,11.8,10.1,10.4,63,35.4,24.9,13.2,9.36,10.9,51,35.5,21.7,"viability, T/C [16]: 11.9%; viability, T/C [17]: 10.2%; viability, T/C [18]: 11.7%; viability, T/C [19]: 36.9%; viability, T/C [20]: 30.3%; viability, T/C [21]: 20.5%; viability, T/C [22]: 13.5%; viability, T/C [23]: 9.89%; viability, T/C [24]: 10.1%; viability, T/C [25]: 24%; viability, T/C [26]: 21.3%; viability, T/C [27]: 16.1%; viability, T/C [28]: 10.8%; viability, T/C [29]: 8.42%; viability, T/C [30]: 10.2%"
COc1ccc([C@@H](O)c2cc(-c3ncnc4cc(N5CCOCC5)ccc34)c(F)cc2Cl)nn1 + Cn1nnc2c(C(N)=O)ncn2c1=O,8.43,> 10,9.93,8.47,5.87,101,103,99.3,114,94.8,42.3,107,109,102,117,95.6,50.5,100,108,114,"viability, T/C [16]: 106%; viability, T/C [17]: 86.9%; viability, T/C [18]: 49.8%; viability, T/C [19]: 104%; viability, T/C [20]: 95.8%; viability, T/C [21]: 95.8%; viability, T/C [22]: 109%; viability, T/C [23]: 79.8%; viability, T/C [24]: 45%; viability, T/C [25]: 88.8%; viability, T/C [26]: 95.8%; viability, T/C [27]: 95.1%; viability, T/C [28]: 81.4%; viability, T/C [29]: 69.5%; viability, T/C [30]: 34%"
